Data on 17 molecules can be found in US4339427A, “Radioimmunoassay of thymosinα” (Hoffmann-la Roche Inc., priority 1980, dated 1982).

To fix the notation:
B1: CEA: oncodevelopmental antigen, carcinoembryonic antigen (Hoffmann-La Roche Inc.) (protein, UniProt P06731 35-685, looked up)
Cell adhesion molecule CEACAM5: KLTIESTPFNVAEGKEVLLLVHNLPQHLFGYSWYKGERVDGNRQIIGYVIGTQQATPGPAYSGREIIYPNASLLIQNIIQNDTGFYTLHVIKSDLVNEEATGQFRVYPELPKPSISSNNSKPVEDKDAVAFTCEPETQDATYLWWVNNQSLPVSPRLQLSNGNRTLTLFNVTRNDTASYKCETQNPVSARRSDSVILNVLYGPDAPTISPLNTSYRSGENLNLSCHAASNPPAQYSWFVNGTFQQSTQELFIPNITVNNSGSYTCQAHNSDTGLNRTTVTTITVYAEPPKPFITSNNSNPVEDEDAVALTCEPEIQNTTYLWWVNNQSLPVSPRLQLSNDNRTLTLLSVTRNDVGPYECGIQNELSVDHSDPVILNVLYGPDDPTISPSYTYYRPGVNLSLSCHAASNPPAQYSWLIDGNIQQHTQELFISNITEKNSGLYTCQANNSASGHSRTTVKTITVSAELPKPSISSNNSKPVEDKDAVAFTCEPEAQNTTYLWWVNGQSLPVSPRLQLSNGNRTLTLFNVTRNDARAYVCGIQNSVSANRSDPVTLDVLYGPDTPIISPPDSSYLSGANLNLSCHSASNPSPQYSWRINGIPQQHTQVLFIAKITPNNNGTYACFVSNLATGRNNSIVKSITVSASGTSPGLSA
B2: alpha-fetoprotein: oncodevelopmental antigen alpha-fetoprotein (Hoffmann-La Roche Inc.) (protein, UniProt P02771 19-609, looked up)
Alpha-fetoprotein: RTLHRNEYGIASILDSYQCTAEISLADLATIFFAQFVQEATYKEVSKMVKDALTAIEKPTGDEQSSGCLENQLPAFLEELCHEKEILEKYGHSDCCSQSEEGRHNCFLAHKKPTPASIPLFQVPEPVTSCEAYEEDRETFMNKFIYEIARRHPFLYAPTILLWAARYDKIIPSCCKAENAVECFQTKAATVTKELRESSLLNQHACAVMKNFGTRTFQAITVTKLSQKFTKVNFTEIQKLVLDVAHVHEHCCRGDVLDCLQDGEKIMSYICSQQDTLSNKITECCKLTTLERGQCIIHAENDEKPEGLSPNLNRFLGDRDFNQFSSGEKNIFLASFVHEYSRRHPQLAVSVILRVAKGYQELLEKCFQTENPLECQDKGEEELQKYIQESQALAKRSCGLFQKLGEYYLQNAFLVAYTKKAPQLTSSELMAITRKMAATAATCCQLSEDKLLACGEGAADIIIGHLCIRHEMTPVNPGVGQCCTSSYANRRPCFSSLVVDETYVPPAFSDDKFIFHKDLCQAQGVALQTMKQEFLINLVKQKPQITEEQLEAVIADFSGLLEKCCQGQEQEVCFAEEGQKLISKTRAALGV
B3: Myoglobin (equine): Myoglobin (equine) (protein, UniProt P68082 2-154, looked up)
Myoglobin: GLSDGEWQQVLNVWGKVEADIAGHGQEVLIRLFTGHPETLEKFDKFKHLKTEAEMKASEDLKKHGTVVLTALGGILKKKGHHEAELKPLAQSHATKHKIPIKYLEFISDAIIHVLHSKHPGDFGADAQGAMTKALELFRNDIAAKYKELGFQG

Where no end group is shown, it is not given here. Where only a bound is given, the exact number is not on record here.

One test deals with rabbit anti-thymosin α1 antiserum. Put plainly: radioimmunoassay for thymosin α1 (inhibition of tracer binding / cross-reactivity, double antibody method).
Details: not given
The protocol: a. Preparation of antisera
Synthetic thymosin α1 was coupled to Keyhole Limpet Hemocyanin (KLH) by means of glutaraldehyde using the following procedure. Equivalent amounts (dry weight) of each protein, thymosin α1 and hemocyanin, were dissolved in 0.25 M NaPO4, pH 7.0 buffer at a concentration of 2 mg/ml. […] The reaction was allowed to continue for 3 hours while being stirred at room temperature. The reaction mixture was diluted in sterile saline to a final concentration of thymosin α1 of 100 μg/ml. The solution of coupled thymosin α1 was aliquoted and stored at -20° C.
The mixture of products resulting from the cross-linking reactions carried out at room temperature was not fractionated or purified in any way. The thymosin α1 KLH conjugate was diluted with sterile normal saline and stored frozen for immunizations. Rabbits were immunized by administering 100 μg thymosin α1 (as the KLH conjugate) in emulsion with Ereund's Complete Adjuvant at 15-20 intradermal sites on the back of each rabbit according to the method of Vaitukaitis et al., J. Clin. Endoch. […] Weekly boosts of 50 μg thymosin α1 per animal in Freund's Incomplete Adjuvant were also administered at multiple intradermal sites.
b. Radioiodination of [Tyr^1 ]-thymosin α1
After a reaction time of 30 seconds at room temperature, the enzyme was inhibited by the addition of […]. […] The tracer was diluted 1:2,000 in immunoassay buffer to provide 4,000-5,000 cpm per assay tube, which is equivalent to less than 1 pg peptide mass per assay tube.
Separation of free from bound tracer is carried out by the addition of goat anti-rabbit gamma globulin serum, incubation for 1 hour at 37° C. and finally incubation at 4° C. for 16 hours. The immunoprecipitate is pelleted by centrifugation at 2500 rpm for 20 minutes, the supernatant is aspirated and discarded, and the radioactivity in the immunoprecipitate is counted in an automatic gamma spectrometer. The counts per minute for standards and unknowns are corrected for non-specific background and compared to the total counts per minute for the reaction tubes where no competing antigen was introduced.
For the molecule “TP.5: TP.5 (Ortho Pharmaceuticals) [reference compound]”, the “cross-reactivity / competition in the RIA (in words)” value (“cross-reactivity / competition” for short) is reported as “no cross-reactivity”.

In the case of “thymopoietin II fragment 29-41: thymopoietin II fragment 29-41 (Bachem, Inc.) (AGEQRKDVYVQLY; UniProt P42167 29-41, looked up, fragment) [reference compound]”, the “cross-reactivity / competition” value was “no cross-reactivity”.

As for B1, the “cross-reactivity / competition” value was “do not cross-react”.

For B2, the “cross-reactivity / competition” value is listed as “do not cross-react”.

Staying with this test, now noted: RIA standard curve.
As to “thymosin α1: heat stable, acidic polypeptide composed of 28 amino acid residues (SDAAVDTSSEITTKDLKEKKEVVEEAEN; ends and bridges not checked; UniProt P06454 2-29, looked up)”, the “ED50 (50% inhibition) of standard curve” value lay within 130 to 160 pg, the “operating range for the assay” value fell in the range of 15 to 800 pg and the “slope at inflection point (50% inhibition)” value is -1.0.

Staying with this test, now noted: RIA standard curve; typically.
For the molecule “thymosin α1: heat stable, acidic polypeptide composed of 28 amino acid residues (SDAAVDTSSEITTKDLKEKKEVVEEAEN; ends and bridges not checked; UniProt P06454 2-29, looked up)”, the “minimal detectable dose (10% inhibition)” value was in the range of 8 to 15 pg.

Still in this test, the particulars now being: Table 1; 125I-[Tyr1]-thymosin α1 tracer.
Turning to Fetuin (bovine): Fetuin (bovine), the “ED50 - Amount of protein (ng) required to produce a 50% inhibition in RIA” value (“ED50 … to produce a 50% inhibition in RIA” below) is > 250,000 ng.

As to “Synthetic thymosin α1: thymosin α1 obtained by peptide synthesis procedures (SDAAVDTSSEITTKDLKEKKEVVEEAEN; ends and bridges not checked; UniProt P06454 2-29, looked up) [reference compound]”, the “ED50 … to produce a 50% inhibition in RIA” value was 0.40 ng.

Consider “Natural thymosin α1: heat stable, acidic polypeptide composed of 28 amino acid residues, isolated from calf thymus thymosin fraction 5 (SDAAVDTSSEITTKDLKEKKEVVEEAEN; ends and bridges not checked; UniProt P01252 2-29, looked up)”, for which the “ED50 … to produce a 50% inhibition in RIA” value is 0.45 ng.

Regarding “TP.5: TP.5 (Ortho Pharmaceuticals) [reference compound]”, the “ED50 … to produce a 50% inhibition in RIA” value was > 15,000 ng.

Take Insulin (porcine): Insulin (porcine): the “ED50 … to produce a 50% inhibition in RIA” value was > 200,000 ng.

Hemoglobin (human): Hemoglobin (human): the “ED50 … to produce a 50% inhibition in RIA” value was > 200,000 ng.

On to Glucagon (porcine): Glucagon (porcine), for which the “ED50 … to produce a 50% inhibition in RIA” value is > 500,000 ng.

Take “Transferrin (human): Transferrin (human)”: the “ED50 … to produce a 50% inhibition in RIA” value was > 50,000 ng.

With “RPPGFSPFR [Bradykinin, reference compound]”, the “ED50 … to produce a 50% inhibition in RIA” value is reported as > 50,000 ng.

Regarding “Erythopoietin (human): Erythopoietin (human)”, the “ED50 … to produce a 50% inhibition in RIA” value is > 160,000 ng.

With “Serum albumin (bovine): Serum albumin (bovine)”, the “ED50 … to produce a 50% inhibition in RIA” value is > 250,000 ng.

As to “Cytochrome C (equine): Cytochrome C (equine)”, the “ED50 … to produce a 50% inhibition in RIA” value is > 200,000 ng.

Take B1: the “ED50 … to produce a 50% inhibition in RIA” value was > 25,000 ng.

B3: the “ED50 … to produce a 50% inhibition in RIA” value is 50,000 ng.
